Measurements taken from patent US9505781B2, “Compositions comprising thienopyrimidine and thienopyridine compounds and methods of use thereof” (The Regents of the University of Michigan, priority 2013, dated 2016).

Legend:
[1] = biological target: T1, menin-MLL-AF9 interaction (Homo sapiens, UniProt O00255); test: Co-Immunoprecipitation (co-IP) in HEK293 cells transfected with MLL-AF9; assay type: cell-based; details: HEK293 cells transfected with MLL-AF9, FIG. 2
T1 construct: performed in HEK293 cells transfected with MLL-AF9; endogenous in cells; host or cells: HEK293 cells (transfected with MLL-AF9)
T1 sequence (O00255 1-610): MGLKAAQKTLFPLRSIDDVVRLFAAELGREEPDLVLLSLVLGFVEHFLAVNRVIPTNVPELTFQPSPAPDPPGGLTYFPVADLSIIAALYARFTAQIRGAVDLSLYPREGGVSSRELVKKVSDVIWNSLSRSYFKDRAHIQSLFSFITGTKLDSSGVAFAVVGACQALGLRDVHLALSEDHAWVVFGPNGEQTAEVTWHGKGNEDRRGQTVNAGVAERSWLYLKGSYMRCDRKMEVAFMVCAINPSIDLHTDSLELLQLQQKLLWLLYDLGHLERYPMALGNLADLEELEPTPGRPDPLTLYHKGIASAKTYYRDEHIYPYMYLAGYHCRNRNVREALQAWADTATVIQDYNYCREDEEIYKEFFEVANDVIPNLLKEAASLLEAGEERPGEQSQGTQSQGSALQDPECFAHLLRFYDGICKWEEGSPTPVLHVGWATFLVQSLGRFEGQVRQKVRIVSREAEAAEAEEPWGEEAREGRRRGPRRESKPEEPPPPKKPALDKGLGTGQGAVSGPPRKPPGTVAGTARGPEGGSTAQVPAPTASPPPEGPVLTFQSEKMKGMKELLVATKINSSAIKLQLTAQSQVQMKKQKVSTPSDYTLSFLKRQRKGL

[2] = tested on: MLL-AF9 transformed BMC; test: Growth curves experiments in transformed BMC; assay type: cell-based; details: MLL-AF9 BMC vs Hoxa9/Meis1 transformed BMC (negative control), FIG. 5
[3] = tested on: MLL-AF9 BMC; test: Differentiation (CD11b expression, cell morphology); assay type: cell-based; details: CD11b expression level and cell morphology, FIG. 9
[4] = tested on: Hoxa9 and Meis 1; test: qRT-PCR of MLL fusion downstream targets; assay type: cell-based; details: qRT-PCR in MLL-AF9 BMC, FIG. 10
Text: FIG. 10. […] B. qRT-PCR performed in MLL-AF9 BMC for Compound 175.

[5] = tested on: human MLL leukemia cell lines; test: Growth inhibition of human MLL leukemia cell lines; assay type: cell-based; details: FIG. 13 A
[6] = tested on: non-MLL leukemia cell lines; test: Growth inhibition of non-MLL leukemia cell lines; assay type: cell-based; details: FIG. 13 B
[7] = biological target: T2, menin-MLL interaction (Homo sapiens, UniProt O00255); test: biochemical
T2 sequence (O00255 1-610): T1 sequence (O00255 1-610)
Text: Compounds that inhibit the interaction decrease the fluorescence anisotropy which is being used as a read-out for compound screening and for IC50 determination.

[8] = tested on: MLL-AF9 transformed mouse bone marrow cells (BMC); test: MTT cell viability assay in transformed BMC; assay type: cell-based; details: 72 h incubation, E2H-HLF transformed BMC as negative control, FIG. 3
[9] = tested on: MLL-AF9 BMC; test: Colony formation assay; assay type: cell-based; details: each round 7 days, FIG. 7
Text: FIG. 7. […] Each round takes 7 days.

[10] = tested on: human MLL leukemia cell lines; test: MTT cell viability assay in human leukemia cell lines; assay type: cell-based; details: 3 days of incubation, FIG. 11
[11] = tested on: MLL-AF9 leukemia; test: In vivo efficacy in mice model of MLL-AF9 leukemia; details: once daily i.p. injections of 75 mg/kg dose, FIG. 18
Text: FIG. 18. In vivo efficacy studies with compound 108 in mice model of MLL-AF9 leukemia.

| SMILES | IC50 [7] [µM] | also measured |
| --- | --- | --- |
| N#Cc1cc2cc(CN3CCC(Nc4ncnc5sc(CC(F)(F)F)cc45)CC3)ccc2[nH]1 [Compound 175, 5-((4-((6-(2,2,2-trifluoroethyl)thieno[2,3-d]pyrimidin-4-yl)amino)piperidin-1-yl)methyl)-1H-indole-2-carbonitrile] | < 0.1 | inhibition of the menin-MLL-AF9 interaction [1]: inhibition of the menin-MLL-AF9 interaction; selectivity in growth curves [2]: great selectivity of the compound towards MLL fusion protein transformed cells; differentiation [3]: Differentiation induced; expression of Hoxa9 and Meis 1 [4]: downregulate expression of downstream targets of MLL fusion proteins; growth inhibition [5]: selectively inhibits growth of human MLL leukemia cell lines; growth inhibition [6]: limited effect |
| CC1(C)CN=C(N2CCN(c3ncnc4sc(CC(F)(F)F)cc34)CC2)S1 [Compound 1, 4-(4-(5,5-dimethyl-4,5-dihydrothiazol-2-yl)piperazin-1-yl)-6-(2,2,2-trifluoroethyl)thieno[2,3-d]pyrimidine] |  | inhibition of the menin-MLL-AF9 interaction [1]: inhibition of the menin-MLL-AF9 interaction; inhibition of proliferation [8]: selectively inhibit proliferation of MLL leukemia cells; expression of Hoxa9 and Meis 1 [4]: downregulate expression of downstream targets of MLL fusion proteins |
| FC(F)(F)Cc1cc2c(NC3CCN(Cc4ccccc4)CC3)ncnc2s1 [Compound 108] | 0.1 to 0.5 | inhibition of the menin-MLL-AF9 interaction [1]: inhibition of the menin-MLL-AF9 interaction; inhibition of proliferation [8]: selectively inhibit proliferation of MLL leukemia cells; morphology of colonies [9]: changes morphology of colonies; expression of Hoxa9 and Meis 1 [4]: downregulate expression of downstream targets of MLL fusion proteins; growth inhibition [10]: selectively inhibit growth of human MLL leukemia cell lines; survival of leukemic mice [11]: Increase in survival of leukemic mice |
| FC(F)(F)Cc1cc2c(N[C@@H]3[C@@H]4CC[C@H]3CN(Cc3ccccc3)C4)ncnc2s1 [Compound 135] | 0.1 to 0.5 |  |
| Nc1ccccc1CN1CCC(Nc2ncnc3sc(CC(F)(F)F)cc23)CC1 [Compound 113] | 0.1 to 0.5 |  |
| N#Cc1ccc2c(CN3CCC(Nc4ncnc5sc(CC(F)(F)F)cc45)CC3)c[nH]c2c1 [Compound 206] | < 0.1 |  |
| OCc1cc(O)ccc1CN1CCC(Nc2ncnc3sc(CC(F)(F)F)cc23)CC1 [Compound 107] | 0.1 to 0.5 |  |
| N#Cc1cc2cc(CN3CCC(Nc4ncnc5sc(CC(F)(F)F)cc45)CC3)ccc2n1CC(N)=O [Compound 189] | < 0.1 |  |
| N#Cc1cc2cc(CN3CCC(Nc4ncnc5sc(CC(F)(F)F)cc45)CC3)c(F)cc2[nH]1 [Compound 234] | 0.1 to 0.5 |  |
| N#Cc1cc2c(Cl)c(CN3CCC(Nc4ncnc5sc(CC(F)(F)F)cc45)CC3)ccc2[nH]1 [Compound 224] | < 0.1 |  |
| Cc1c(CN2CCC(Nc3ncnc4sc(CC(F)(F)F)cc34)CC2)c(O)cc2[nH]c(C#N)cc12 [Compound 384] | < 0.1 |  |
| Cc1cc(Cn2c(C#N)cc3c(C)c(CN4CCC(Nc5ncnc6sc(CC(F)(F)F)cc56)CC4)ccc32)[nH]n1 [Compound 365] | < 0.1 |  |
| Cc1c(CN2CCC(Nc3ncnc4sc(CC(F)(F)F)cc34)CC2)ccc2c1cc(C#N)n2CCN1CCOC(CO)C1 (stereo not shown) [Compound 362] | < 0.1 |  |
| CCCc1cc2c(N3CCN(c4nnc(C(F)(F)F)s4)CC3)ncnc2s1 [Compound 33] | 0.5 to 2 |  |
| Cc1ccccc1CN1CCC(Nc2ncnc3sc(CC(F)(F)F)cc23)CC1 [Compound 117] | 0.1 to 0.5 |  |
| Cc1ccc(CN2CCC(Nc3ncnc4sc(CC(F)(F)F)cc34)CC2)c(C)c1 [Compound 120] | 0.1 to 0.5 |  |
| O=C(Cc1ccccc1F)N1CCN(c2ncnc3sc(CC(F)(F)F)cc23)CC1 [Compound 72] | 0.1 to 0.5 |  |
| Cc1nnc(Cn2c(C#N)cc3c(C)c(CN4CCC(Nc5ncnc6sc(CC(F)(F)F)cc56)CC4)ccc32)s1 [Compound 322] | < 0.1 |  |
| COc1cc2c(cc(C#N)n2Cc2c[nH]nn2)c(C)c1CN1CCC(Nc2ncnc3sc(CC(F)(F)F)cc23)CC1 [Compound 392] | < 0.1 |  |
| OCc1cnc2sc(CC(F)(F)F)cc2c1NC1CCN(Cc2ccccc2)CC1 [Compound 280] | < 0.1 |  |
| O=c1[nH]c2ccc(CN3CCC(Nc4ncnc5sc(CC(F)(F)F)cc45)CC3)cc2[nH]1 [Compound 250] | 0.5 to 2 |  |
| NCc1nnc(N2CCN(c3ncnc4sc(CC(F)(F)F)cc34)CC2)s1 [Compound 4] | 0.1 to 0.5 |  |

| SMILES | IC50 [7] [µM] | also measured |
| --- | --- | --- |
| Cc1c(CN2CCC(Nc3ncnc4sc(CC(F)(F)F)cc34)CC2)ccc2c1cc(C#N)n2Cc1cc(Cc2ccncc2)[nH]n1 [Compound 345] | < 0.1 |  |
| CCOc1c(CN2CCC(Nc3ncnc4sc(CC(F)(F)F)cc34)CC2)ccc2[nH]c(C#N)cc12 [Compound 244] | 0.1 to 0.5 |  |
| N#Cc1cc2cc(CN3CCC(Nc4ncnc5sc(CC(F)(F)F)cc45)CC3)ccc2n1CC(CO)OCC1CCCCC1 (stereo not shown) [Compound 320] | < 0.1 |  |
| COCCOCCn1nc(Cn2c(C#N)cc3cc(CN4CCC(Nc5ncnc6sc(CC(F)(F)F)cc56)CC4)ccc32)cc1C [Compound 411] | 0.1 to 0.5 |  |
| Cc1ccc2[nH]c(C#N)cc2c1CN1CCC(Nc2ncnc3sc(CC(F)(F)F)cc23)CC1 [Compound 218] | < 0.1 |  |
| FC(F)(F)Cc1sc2ncnc(N3CCN(c4nnc(C(F)(F)F)s4)CC3)c2c1I [Compound 6] | 0.1 to 0.5 |  |
| N#Cc1cc2cc(CN3CCC(Nc4c(COCC5CCCC5)cnc5sc(CC(F)(F)F)cc45)CC3)ccc2[nH]1 [Compound 421] | 0.5 to 2 |  |
| O=CN1CCCC1CN[C@H]1CN(Cc2ccccc2)CC[C@@H]1Nc1ncnc2sc(CC(F)(F)F)cc12 (stereo partly shown) [Compound 170] | 0.1 to 0.5 |  |
| N#Cc1cc2cc(CN3CCC(Nc4c(COCc5cc[nH]n5)cnc5sc(CC(F)(F)F)cc45)CC3)ccc2[nH]1 [Compound 420] | 0.5 to 2 |  |
| CO[C@H](CO)Cn1c(C#N)cc2cc(CN3CCC(Nc4ncnc5sc(CC(F)(F)F)cc45)CC3)ccc21 [Compound 191] | < 0.1 |  |
| CN1CCN(S(=O)(=O)Nc2ccc(CC(=O)N3CCN(c4ncnc5sc(CC(F)(F)F)cc45)CC3)cc2)CC1 [Compound 55] | < 0.1 |  |
| CCCc1cc2c(NC3CCN(Cc4ccc(C)cc4)CC3)ncnc2s1 [Compound 151] | 0.5 to 2 |  |
| COc1cc2c(cc1CN1CCC(Nc3ncnc4sc(CC(F)(F)F)cc34)CC1)cc(C#N)n2Cc1cn[nH]c1 [Compound 390] | < 0.1 |  |
| N#Cc1nc2ccc(CN3CCC(Nc4ncnc5sc(CC(F)(F)F)cc45)CC3)cc2o1 [Compound 248] | 0.5 to 2 |  |
| Cc1nc[nH]c1Cn1c(C#N)cc2c(C)c(CN3CCC(Nc4ncnc5sc(CC(F)(F)F)cc45)CC3)ccc21 [Compound 350] | < 0.1 |  |
| Cc1c(CN2CCC(Nc3ncnc4sc(CCF)cc34)CC2)ccc2[nH]c(C#N)cc12 [Compound 423] | < 0.1 |  |
| CCc1ccc(CN2CCC(Nc3ncnc4sc(CC(F)(F)F)cc34)CC2)cc1 [Compound 118] | 0.1 to 0.5 |  |
| CN(c1ccc(CC(=O)N2CCN(C3=NC=NC4SC(CC(F)(F)F)=CC34)CC2)c(Cl)c1)S(C)(=O)=O (stereo not shown) [Compound 65] | < 0.1 |  |
| COCC(O)Cn1c(C#N)cc2cc(CN3CCC(Nc4ncnc5sc(CC(F)(F)F)cc45)CC3)ccc21 (stereo not shown) [Compound 237] | 0.1 to 0.5 |  |
| FC(F)(F)Cc1cc2c(N[C@H]3CCN(Cc4ccccc4)C[C@@H]3NCCc3ccccc3)ncnc2s1 [Compound 168] | 0.1 to 0.5 |  |
| FC(F)(F)Cc1cc2c(N(NCc3ccccc3)C3CCN(Cc4ccccc4)CC3)ncnc2s1 [Compound 124] | 0.1 to 0.5 |  |
| FC(F)(F)Cc1cc2c(NC3CCN(Cc4ccc(CN5CCCCC5)cc4)CC3)ncnc2s1 [Compound 116] | 0.1 to 0.5 |  |
